This note sets out measurements from US20220227759A1, “AMORPHOUS PI3K INHIBITOR AND PHARMACEUTICAL COMPOSITION COMPRISING SAME” (BORYUNG PHARMACEUTICAL CO., LTD, priority 2019, published 2022).

This data set is described as follows: Pharmacokinetic (PK) test. The following applies: beagle dog, 100 mg, PO, capsule. It is filed as in vivo. As for the experimental part: A pharmacokinetic (PK) experiment was performed on the amorphous compound of Example 1.
The powder of the amorphous compound of Example 1 was filled into a capsule in an amount of 100 mg, and the capsule was orally administered to a beagle dog at 100 mg once a day, and then the biokinetics of the drug was confirmed.
Specifically, 100 mg of the amorphous compound was orally administered to the beagle dog, and blood was collected at a predetermined time, so as to measure a concentration of (S)-4-((1-(4,8-dichloro-1-oxo-2-phenyl-1,2-dihydroisoquinoline-3-yl)ethyl)amino)pyrido[2,3-d]pyrimidine-5(8H)-one. With respect to pharmacokinetic parameters, the BA Calc 2007 program was used to calculate an area under the plasma concentration-time curve from dosing time to final plasma concentration quantification time t (AUCt), an area under the plasma concentration-time curve from dosing time to infinite time (AUCi), peak plasma concentration (Cmax), time for peak plasma concentration (Tmax), and terminal elimination half-life (t1/2). As a result, a significance between substances was confirmed by Student t-test (SPSS) at a 95% confidence interval, and the results thereof are shown in table 4 below.

Turning to `C[C@H](Nc1ncnc2[nH]ccc(=O)c12)c1c(Cl)c2cccc(Cl)c2c(=O)n1-c1ccccc1` [Example 1, (S)-4-((1-(4,8-dichloro-1-oxo-2-phenyl-1,2-dihydroisoquinoline-3-yl)ethyl)amino)pyrido[2,3-d]pyrimidin-5(8H)-one], the blood concentration entry is reported as “high blood concentration”.
